This is an account of results in patent US20240245639A1, “Dermal Application of Retinoic Acid Receptor Agonists for Amelioration of Hypertrophic Scar” (Northwestern University, priority 2023, published 2024).

In this experiment the test system is primary human foreskin fibroblasts. Nature of the experiment: Antagonism of fibroblast activation in presence or absence of TGF-β1 (qRT-PCR, Western blot, immunofluorescence). Format: cell-based. As to conditions: 1,000 nM Ch55, presence and absence of TGF-β1, 48 hours. The protocol: RAR Agonist all-Trans Retinoic Acid Antagonizes Myofibroblast Activation We then wished to see whether another RAR agonist could antagonize myofibroblast activation.
Cells cultured on glass coverslips were fixed in 4% paraformaldehyde for 30 minutes at room temperature. Cells were blocked in 10% normal goat serum and incubated overnight at 4° C. in solutions of the following primary antibodies: Rabbit monoclonal α-human α-SMA (1:500 dilution, catalog #192455, Cell Signaling Technology, Danvers M A) or mouse α-human COL1A1 (1:1000 dilution, catalog #M-38c, DSHB, Iowa City, IA). The following day, cells were incubated in 1:200 diluted solutions of goat-α-rabbit IgG or donkey-α-mouse IgG Alexafluor 488-conjugated secondary antibodies (A11034 or A21202, Invitrogen) containing Alexafluor 568-conjugated phalloidin (A12380, Invitrogen) for 2 hours in the dark at room temperature, before a 20 minute counterstain in 500 ng/mL DAPI. Coverslips were mounted onto slides in the dark using Fluoro Gel with DABCO (Electron Microscopy Sciences, Hatfield, PA) and imaged on an EVOS-FL imaging system (ThermoFisher).
Harvested scar tissues were incubated in 0.5M ammonium thiocyanate for 20 minutes, followed by mechanical separation of dermis and epidermis using a dissecting microscope. Isolated dermal tissues were minced with a razor blade, submerged in RIPA buffer, and homogenized in the presence of 2 mm zirconia beads using a MagNA Lyser (Roche, Basel, Switzerland). Alternatively, cell culture samples were detached from the culture surface by trypsinization, collected by centrifugation, and lysed in RIPA buffer. Protein concentrations of cell culture and tissue samples were determined using a DC protein assay (BioRad). Five micrograms of total protein were loaded onto polyacrylamide gels and subjected to SDS-PAGE before transfer to nitrocellulose membranes, blocking with 5% dry milk in TBS-T, and probing with target-specific primary antibodies overnight. Species-specific secondary antibody solutions were added to membranes, and chemiluminescent signal was developed with Amersham ECL Western blotting detection reagent using X-ray film.
Primary antibodies used were rabbit anti-α-SMA (1:1000, 19245S, Cell Signaling Technology), rabbit anti-collagen I (1:1000, ab34710, Abcam), mouse anti-collagen I (1:1000, C2456, Sigma-Aldrich), and mouse anti-GAPDH (1:5000, MA5-15738, Invitrogen). Secondary antibodies utilized were HRP goat anti-rabbit IgG(H+L) and horse anti-mouse IgG(H+L) (Vector Laboratories, Newark, CA), both used at 1:5000.
(Real-time PCR tracks product formation cycle by cycle.)

`CC(C)(C)c1cc(C(=O)/C=C/c2ccc(C(=O)O)cc2)cc(C(C)(C)C)c1` [Ch55]: the “α-SMA protein in filamentous actin stress fibers (immunofluorescence)” value was “loss of α-SMA protein from filamentous actin stress fibers”.
